{"source": "patent US20230114728A1", "about": "(Venatorx Pharmaceuticals, Inc., priority 2019, published 2023)", "data": [{"target": "T1, A. baumannii PBP2 (Acinetobacter baumannii, UniProt D0C8Z9)", "T1 construct": "made in house", "T1 sequence (D0C8Z9 1-672)": "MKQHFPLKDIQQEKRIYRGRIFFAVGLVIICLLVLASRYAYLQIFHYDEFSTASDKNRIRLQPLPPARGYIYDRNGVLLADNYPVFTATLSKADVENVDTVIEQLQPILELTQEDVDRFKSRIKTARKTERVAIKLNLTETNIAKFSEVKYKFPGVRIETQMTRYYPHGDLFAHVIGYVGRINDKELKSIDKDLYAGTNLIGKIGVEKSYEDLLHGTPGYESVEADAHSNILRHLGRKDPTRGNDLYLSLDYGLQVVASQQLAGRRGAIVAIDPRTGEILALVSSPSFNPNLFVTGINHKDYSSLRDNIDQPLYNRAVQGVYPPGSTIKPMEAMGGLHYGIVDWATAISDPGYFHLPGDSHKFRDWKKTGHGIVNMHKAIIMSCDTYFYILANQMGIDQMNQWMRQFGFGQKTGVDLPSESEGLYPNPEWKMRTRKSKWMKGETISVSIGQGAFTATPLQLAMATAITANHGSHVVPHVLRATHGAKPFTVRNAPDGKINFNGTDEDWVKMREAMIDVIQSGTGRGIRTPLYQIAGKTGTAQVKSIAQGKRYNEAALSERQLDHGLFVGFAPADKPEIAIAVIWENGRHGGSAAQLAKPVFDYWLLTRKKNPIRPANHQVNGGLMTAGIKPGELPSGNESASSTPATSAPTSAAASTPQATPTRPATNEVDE", "assay": "Bocillin-FL fluorescence polarization competition binding assay, A. baumannii PBP2", "settings": "fluorescence polarization competition binding assay using Bocillin-FL; read-out: A. baumannii PBP2 Potency", "excerpt": "Example I: Experimental Method for Penicillin-Binding Protein Binding Assays with Bocillin-FL Via Fluorescence Polarization\nTo determine the ability of boronic acid-based test PBP inhibitors to bind Penicillin Binding Proteins (PBPs), Bocillin-FL (fluorescently-labeled penicillin V; ThermoFisher Scientific) was used in a fluorescence polarization (FP) competition binding assay to assess inhibitor binding to PBP2, PBP3 or PBP4 from Escherichia coli (K12), PBP3 from Pseudomonas aeruginosa (PA01), PBP1a, PBP2 and PBP3 from Acinetobacter baumannii (ATCC 19606), and PBP2 from Neiserria gonorrheae (FA19). PBPs were cloned and purified as described previously (E. coli PBPs, King, D. T, et al., ACS Infectious Diseases 2015, 1, 175-184; P. aeruginosa PBP3, Han et. al., PNAS 2010, 107 (51), 22002-22007; A. baumannii PBPs, Penwell et. al., Antimicrob. Agents Chemother. 2015, 59 (3), 1680-1689; N. gonorrhoeae PBP2, Singh et. al., J Biol. Chem. 2019, 294 (38), 14020-14032). To establish assay conditions for competition binding, enzyme titration/saturation binding experiments were initially performed. Bocillin-FL was prepared at 0.2 μM in a buffer comprised of 50 mM Hepes (pH 8.0), 300 mM NaCl and 5% (v/v) glycerol for reactions with E. coli, P. aeruginosa and N. gonorrhoeae PBPs, and 25 mM Tris (pH 8.0), 200 mM NaCl and 10% (v/v) glycerol and 0.005% (v/v) Tween 20 for reactions with A. baumannii PBPs. Saturation binding was performed by mixing 40 μl of PBP solutions ranging in concentrations from 0-24 μM with 40 μl of the 0.2 μM Bocillin-FL solution, in individual wells of a black 384-well microplate. FP was measured immediately upon mixing (Excitation, 490 nm; Emission, 520 nm; g-factor, 0.96), using a Cytation3 (BioTek) microplate reader and measured continuously for up to 120 minutes. […] The competition binding assay (80 μl final volume) was validated using beta-lactams and PBPs at final concentrations of: 1.5 μM, E. coli PBP3; 0.75 μM, P. aeruginosa PBP3; 1 μM A. baumannii PBP1a; 2.5 μM A. baumannii PBP2; 0.2 μM A. baumannii PBP3; and […] N. gonorrhoeae PBP2. Bocillin-FL was at 0.1 μM (0.05 μM with A. baumannii PBP1a) and beta-lactam concentrations ranged from 0-1000 μM. […] Bocillin-FL was added and the FP immediately measured for up to 60 minutes (90 minutes for E. coli PBP2). […] The beta-lactam potency was reported as the concentration of beta-lactam required to reduce the amount of PBP bound-Bocillin-FL by 50% (EC50). […] Binding assays for boronic acid PBP inhibitors were performed in an identical fashion for the respective PBPs", "units": {"EC50": "µM"}, "values": [{"smiles": "NC1(CN2CCN(C(=O)N[C@@H](C(=O)N[C@H]3Cc4ccc(F)c(C(=O)O)c4OB3O)c3c(F)cc(O)c(O)c3Cl)C(=O)C2=O)CC1", "note": "(single isomer, unassigned) [Example 134]", "EC50": "30 to 100"}, {"smiles": "NCCN1CCN(C(=O)N[C@@H](C(=O)N[C@H]2Cc3ccc(F)c(C(=O)O)c3OB2O)c2cc(F)c(O)c(O)c2Cl)C(=O)C1=O", "note": "(single isomer, unassigned) [Example 179]", "EC50": "> 100"}, {"smiles": "NCCCN1CCN(C(=O)N[C@@H](C(=O)N[C@H]2Cc3ccc(F)c(C(=O)O)c3OB2O)c2cc(F)c(O)c(O)c2Cl)C(=O)C1=O", "note": "(single isomer, unassigned) [Example 180]", "EC50": "> 100"}, {"smiles": "C[C@@H](O)[C@@H](NC(=O)N1CCN(CCNC(=O)c2c(F)cc(O)c(O)c2Cl)C(=O)C1=O)C(=O)N[C@H]1Cc2ccc(F)c(C(=O)O)c2OB1O", "note": "[Example 102, (R)-3-((2R,3R)-2-(4-(2-(2-chloro-6-fluoro-3,4-dihydroxybenzamido)ethyl)-2,3-dioxopiperazine-1-carboxamido)-3-hydroxybutanamido)-7-fluoro-2-hydroxy-3,4-dihydro-2H-benzo[e][1,2]oxaborinine-8-carboxylic acid]", "EC50": "> 100"}, {"smiles": "NS(=O)(=O)Nc1cccc(C(NC(=O)N2CCN(Cc3c(F)cc(O)c(O)c3Cl)C(=O)C2=O)C(=O)N[C@H]2Cc3cccc(C(=O)O)c3OB2O)c1", "note": "(stereo partly drawn) [Example 131, (3R)-3-(2-(4-(2-chloro-6-fluoro-3,4-dihydroxybenzyl)-2,3-dioxopiperazine-1-carboxamido)-2-(3-(sulfamoylamino)phenyl)acetamido)-2-hydroxy-3,4-dihydro-2H-benzo[e][1,2]oxaborinine-8-carboxylic acid]", "EC50": "30 to 100"}, {"smiles": "NS(=O)(=O)c1cc(O)cc(C(NC(=O)N2CCN(Cc3c(F)cc(O)c(O)c3Cl)C(=O)C2=O)C(=O)N[C@H]2Cc3cccc(C(=O)O)c3OB2O)c1", "note": "(stereo partly drawn) [Example 132, (3R)-3-(2-(4-(2-chloro-6-fluoro-3,4-dihydroxybenzyl)-2,3-dioxopiperazine-1-carboxamido)-2-(3-hydroxy-5-sulfamoylphenyl)acetamido)-2-hydroxy-3,4-dihydro-2H-benzo[e][1,2]oxaborinine-8-carboxylic acid]", "EC50": "> 100"}, {"smiles": "CCN1CCN(C(=O)NC(C(=O)N[C@H]2Cc3cccc(C(=O)O)c3OB2O)c2c(F)cc(N)cc2F)C(=O)C1=O", "note": "(stereo partly drawn) [Example 181, (3R)-3-(2-(4-amino-2,6-difluorophenyl)-2-(4-ethyl-2,3-dioxopiperazine-1-carboxamido)acetamido)-2-hydroxy-3,4-dihydro-2H-benzo[e][1,2]oxaborinine-8-carboxylic acid]", "EC50": "> 100"}]}]}
